The target in experiment [1] is T1, Pendrin (Mus musculus) (UniProt Q9R155).
T1 sequence (whole entry): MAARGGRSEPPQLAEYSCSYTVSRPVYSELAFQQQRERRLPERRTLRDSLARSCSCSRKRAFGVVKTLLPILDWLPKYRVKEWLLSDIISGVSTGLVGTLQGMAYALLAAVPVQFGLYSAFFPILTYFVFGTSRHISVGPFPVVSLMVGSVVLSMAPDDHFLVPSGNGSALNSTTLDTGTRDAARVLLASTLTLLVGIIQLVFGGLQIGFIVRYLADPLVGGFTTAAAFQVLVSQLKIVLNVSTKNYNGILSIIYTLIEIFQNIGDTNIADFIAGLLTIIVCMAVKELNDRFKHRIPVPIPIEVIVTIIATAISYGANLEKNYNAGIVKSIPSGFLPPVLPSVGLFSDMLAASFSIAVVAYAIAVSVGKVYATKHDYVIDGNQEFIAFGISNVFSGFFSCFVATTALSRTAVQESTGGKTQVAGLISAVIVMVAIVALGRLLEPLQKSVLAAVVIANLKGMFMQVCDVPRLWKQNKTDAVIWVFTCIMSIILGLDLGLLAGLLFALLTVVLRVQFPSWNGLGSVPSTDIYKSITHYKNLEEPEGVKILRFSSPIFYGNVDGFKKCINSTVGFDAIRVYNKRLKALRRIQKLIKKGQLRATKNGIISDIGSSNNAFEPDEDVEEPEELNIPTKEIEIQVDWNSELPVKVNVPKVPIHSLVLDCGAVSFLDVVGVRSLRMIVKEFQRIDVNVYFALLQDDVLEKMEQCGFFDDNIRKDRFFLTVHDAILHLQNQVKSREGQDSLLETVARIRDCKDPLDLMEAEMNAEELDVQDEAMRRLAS
The experiment is described as follows: Inhibition of mouse pendrin expressed in FRT cells co-expressing YFP-HIF assessed as reduction in pendrin-mediated exchange of Cl(-) with I(-) by pH-sensitive fluorescent probe BCECF-AM based fluorescence assay relative to control. The experiment is classed as cell-based.

The target in experiment [2] is T1, Pendrin (Mus musculus). In words: Inhibition of mouse pendrin expressed in FRT cells co-expressing YFP-HIF assessed as reduction in pendrin-mediated kinetics of CI7HCO3(-) exchange by pH-sensitive fluorescent probe BCECF-AM based fluorescence assay relative to control. The experiment is classed as cell-based.
Experiment [3] addresses T2, Band 3 anion transport protein (Mus musculus) (UniProt P04919).
T2 sequence (whole entry): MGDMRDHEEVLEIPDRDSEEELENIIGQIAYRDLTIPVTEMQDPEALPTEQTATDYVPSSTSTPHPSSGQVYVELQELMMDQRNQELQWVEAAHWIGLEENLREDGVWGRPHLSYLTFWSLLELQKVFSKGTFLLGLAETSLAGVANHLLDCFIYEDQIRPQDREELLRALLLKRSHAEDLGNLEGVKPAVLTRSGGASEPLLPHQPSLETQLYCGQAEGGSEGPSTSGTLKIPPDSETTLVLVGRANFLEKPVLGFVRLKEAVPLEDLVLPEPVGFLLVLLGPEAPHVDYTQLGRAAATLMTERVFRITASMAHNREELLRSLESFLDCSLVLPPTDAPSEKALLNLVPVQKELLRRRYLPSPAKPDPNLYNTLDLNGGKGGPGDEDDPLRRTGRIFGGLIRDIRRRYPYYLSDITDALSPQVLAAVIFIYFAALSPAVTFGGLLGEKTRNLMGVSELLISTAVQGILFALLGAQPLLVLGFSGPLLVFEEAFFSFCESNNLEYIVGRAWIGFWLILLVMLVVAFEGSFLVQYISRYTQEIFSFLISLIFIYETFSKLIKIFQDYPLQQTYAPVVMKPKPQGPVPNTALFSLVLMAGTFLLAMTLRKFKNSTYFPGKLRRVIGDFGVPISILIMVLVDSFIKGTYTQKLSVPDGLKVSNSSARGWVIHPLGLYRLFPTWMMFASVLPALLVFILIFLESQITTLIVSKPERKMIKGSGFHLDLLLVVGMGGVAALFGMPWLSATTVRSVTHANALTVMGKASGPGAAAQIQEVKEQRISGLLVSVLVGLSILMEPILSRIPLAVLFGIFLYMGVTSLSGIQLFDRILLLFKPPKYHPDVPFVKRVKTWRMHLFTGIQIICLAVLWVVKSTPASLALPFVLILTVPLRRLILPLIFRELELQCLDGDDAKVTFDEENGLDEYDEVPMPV
In words: Inhibition of mouse Slc4a1 expressed in COS7 co-expressing EYFP-HIF assessed as effect on SCN(-) gradient at 25 uM by YFP-based fluorescence quenching assay.

The test system of experiment [4] is Mus musculus. In words: Potentiation of 20 mg/kg, ip furosemide-induced acute diuretic action in CD1 mouse assessed as effect on urine pH at 50 mg/kg, ip relative to control. The experiment is classed as functional, organism-based.
The test system of experiment [5] is Mus musculus. In words: Potentiation of 20 mg/kg, ip furosemide-induced acute diuretic action in CD1 mouse assessed as induction of metabolic alkalosis at 10 mg/kg, ip. The experiment is classed as functional, organism-based.
For experiment [6], the target named is T3, Chloride anion exchanger (Homo sapiens) (UniProt P40879).
T3 sequence (whole entry): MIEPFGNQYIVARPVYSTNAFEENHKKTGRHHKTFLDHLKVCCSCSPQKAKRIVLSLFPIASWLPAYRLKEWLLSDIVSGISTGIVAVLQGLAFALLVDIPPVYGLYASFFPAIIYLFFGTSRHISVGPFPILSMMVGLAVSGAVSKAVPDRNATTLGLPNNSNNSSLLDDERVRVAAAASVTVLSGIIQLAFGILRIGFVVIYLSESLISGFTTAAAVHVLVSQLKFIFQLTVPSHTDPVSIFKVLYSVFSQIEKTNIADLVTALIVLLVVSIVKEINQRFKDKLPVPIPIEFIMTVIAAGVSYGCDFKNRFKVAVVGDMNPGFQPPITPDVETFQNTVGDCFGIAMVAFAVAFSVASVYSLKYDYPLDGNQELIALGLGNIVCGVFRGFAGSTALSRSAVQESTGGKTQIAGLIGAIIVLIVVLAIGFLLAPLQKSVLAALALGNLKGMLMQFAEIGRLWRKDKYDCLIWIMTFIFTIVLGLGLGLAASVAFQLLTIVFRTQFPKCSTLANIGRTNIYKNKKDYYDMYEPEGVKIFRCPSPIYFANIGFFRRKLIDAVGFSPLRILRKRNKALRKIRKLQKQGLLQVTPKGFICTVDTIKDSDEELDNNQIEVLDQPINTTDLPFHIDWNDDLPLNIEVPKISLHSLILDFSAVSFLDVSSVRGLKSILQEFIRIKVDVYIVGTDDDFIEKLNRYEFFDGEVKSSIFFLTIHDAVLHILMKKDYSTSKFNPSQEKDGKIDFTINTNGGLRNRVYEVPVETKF
The experiment is described as follows: Inhibition of human SLC26A3 expressed in COS7 co-expressing EYFP-HIF assessed as reduction in SCN gradient.

The source made the active and inactive calls. No cut-off for these calls is given here.

Turning to `Cc1n[nH]c(-c2cc(S(=O)(=O)NC3CCCc4ccccc43)c(C)s2)c1C` (stereo unspecified), the inhibition result at Pendrin (Mus musculus) [1] and on Pendrin (Mus musculus) [2] was “Dose-dependent effect” each time. Besides, the inhibition result in experiment [3] is “inactive”. In addition, the result with Mus musculus [4] was inactive. Further, the outcome with Mus musculus [5] was Active.
Take `Cn1nc(COc2cccc(F)c2)c2c1CCN(C(=O)Nc1ccc(Cl)cc1)C2`: in experiment [6], the inhibition entry is “inactive”.

For the origin of these results see ChEMBL document CHEMBL4417636, “Small molecule inhibitors of pendrin ion exchange and pharmaceutical compositions” (2017).
